Where a name gives a salt, the structure may show the parent alone.
Columns and labels:
[1] = biological target: T1, Proton Pump (H^+,K^+-ATPase) (Sus scrofa, UniProt P19156); assay: Inhibitory activity on proton pump (H+,K+-ATPase) activity, porcine gastric vesicles, malachite green readout; assay type: biochemical; settings: for IC50: porcine gastric vesicles, pH 6.5, 8 mM KCl, 0.2 mM ATP; for inhibitory activity against proton pump activity: result in words
T1 construct: gastric vesicles were isolated from porcine stomachs; from tissue; host or cells: porcine stomach (gastric vesicles)
T1 sequence (P19156 2-1034 limits assumed): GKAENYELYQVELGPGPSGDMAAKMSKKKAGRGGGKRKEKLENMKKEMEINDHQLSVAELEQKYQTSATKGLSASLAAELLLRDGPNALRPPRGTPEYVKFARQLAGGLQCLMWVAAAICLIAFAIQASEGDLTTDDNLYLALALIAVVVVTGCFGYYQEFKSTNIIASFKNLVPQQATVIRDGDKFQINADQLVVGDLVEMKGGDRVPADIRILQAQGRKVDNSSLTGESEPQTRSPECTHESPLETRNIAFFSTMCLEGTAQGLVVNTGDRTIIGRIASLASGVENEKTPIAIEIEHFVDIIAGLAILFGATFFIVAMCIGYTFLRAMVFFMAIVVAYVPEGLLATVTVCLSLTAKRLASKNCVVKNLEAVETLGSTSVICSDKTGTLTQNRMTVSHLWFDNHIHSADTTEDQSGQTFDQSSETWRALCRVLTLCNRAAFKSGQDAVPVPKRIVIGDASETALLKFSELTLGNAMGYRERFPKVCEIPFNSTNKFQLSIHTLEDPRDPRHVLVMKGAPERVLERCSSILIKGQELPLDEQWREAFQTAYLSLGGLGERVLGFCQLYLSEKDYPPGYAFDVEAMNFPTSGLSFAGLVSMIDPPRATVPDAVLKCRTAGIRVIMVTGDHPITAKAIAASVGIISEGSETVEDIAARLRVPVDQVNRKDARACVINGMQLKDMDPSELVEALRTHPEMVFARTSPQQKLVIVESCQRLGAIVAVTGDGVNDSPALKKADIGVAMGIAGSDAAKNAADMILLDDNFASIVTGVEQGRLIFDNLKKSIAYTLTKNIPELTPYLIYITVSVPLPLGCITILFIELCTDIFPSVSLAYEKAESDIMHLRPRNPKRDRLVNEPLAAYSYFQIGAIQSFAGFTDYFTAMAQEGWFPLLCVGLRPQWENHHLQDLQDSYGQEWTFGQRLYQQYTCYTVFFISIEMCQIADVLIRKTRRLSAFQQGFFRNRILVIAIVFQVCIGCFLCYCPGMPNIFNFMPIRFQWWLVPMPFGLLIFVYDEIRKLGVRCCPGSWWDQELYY
T1 sequence (P18434 whole entry partner): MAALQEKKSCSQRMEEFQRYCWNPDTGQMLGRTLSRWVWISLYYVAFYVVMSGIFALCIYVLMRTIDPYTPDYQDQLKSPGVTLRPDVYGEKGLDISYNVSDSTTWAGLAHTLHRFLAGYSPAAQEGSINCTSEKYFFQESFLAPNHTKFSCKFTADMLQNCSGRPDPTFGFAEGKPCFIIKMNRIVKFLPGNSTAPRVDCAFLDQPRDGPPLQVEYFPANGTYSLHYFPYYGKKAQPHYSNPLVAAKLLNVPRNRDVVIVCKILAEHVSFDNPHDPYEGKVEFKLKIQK
Method in brief: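 Porcine gastric vesicles (100 ng) preincubated 30 min at 37°C with […] valinomycin and compound (0.1% DMSO final) in 50 mM Tris-HEPES, 5 mM MgCl2, 8 mM KCl, pH 6.5, then 0.2 mM ATP for 20 min at 37°C. Released phosphate measured by malachite green at 620 nm; IC50 via nonlinear regression of % inhibition.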

Pylorus-Ligated Rats = assay: Inhibitory activity on basal gastric acid secretion in pylorus-ligated rats (Shay's rat model); assay type: in vivo, male Sprague Dawley (SD) rats; settings: for inhibition in vivo at 2 mg/kg: Rattus norvegicus, po, read-out: GERD (rat/mpk); for inhibitory activity against basal gastric acid secretion: result in words, pyloric-ligated rats
Description: Specifically, male Sprague Dawley (SD) rats (weighing 180-220 g) were fasted for 24 hours with only water, and then randomly assigned to groups (n=4-5) after measuring body weight. The negative control group was orally administered 10% dimethylsulfoxide (DMSO)/10% Cremophor EL/80% D.W. at 2 mL/kg, and the test group was orally administered the test compound at 2 mg/kg/2 mL. One hour after administration, the rats' abdominal cavity was incised under isoflurane anesthesia, the stomach was exposed, and the pylorus was ligated. Three hours after ligation, the test animals were sacrificed and the stomach contents were collected by laparotomy again. The contents were centrifuged (3,000 rpm, 10 min), and only the supernatant was separated to obtain gastric juice. Afterwards, gastric fluid volume measurement, gastric fluid pH measurement, NaOH titration, and total gastric acid secretion calculation (gastric fluid volume × 0.1 N NaOH titer × 100) were sequentially performed.

IC50 [1] [µM]	Molecule	other results
< 0.05	Cc1cccc(C)c1CNc1cc(NC(=O)CO)cn2c(C)c(C)nc12 [Example 26, N-(8-((2,6-dimethylbenzyl)amino)-2,3-dimethylimidazo[1,2-a]pyridin-6-yl)-2-hydroxyacetamide]	inhibitory activity against proton pump activity [1]: excellent inhibitory properties; inhibition in vivo at 2 mg/kg (Pylorus-Ligated Rats): ≥ 90%; inhibitory activity against basal gastric acid secretion (Pylorus-Ligated Rats; 2 mg/kg oral): inhibitory activity
0.1 to 0.5	Cc1cccc(C)c1CNc1cc(NC(=O)c2ccccc2)cn2c(C)c(C)nc12 [Example 104, N-(8-((2,6-dimethylbenzyl)amino)-2,3-dimethylimidazo[1,2-a]pyridin-6-yl)benzamide citrate]	–
0.1 to 0.5	Cc1cccc(C)c1CNc1cc(NC(=O)[C@@H]2CCCCN2)cn2c(C)c(C)nc12 [Example 106, (S)-N-(8-((2,6-dimethylbenzyl)amino)-2,3-dimethylimidazo[1,2-a]pyridin-6-yl)piperidine-2-carboxamide hydrochloride]	–
0.1 to 0.5	CC(=O)O[C@H](C)C(=O)Nc1cc(NCc2c(C)cc(F)cc2C)c2nc(C)c(C)n2c1 [Example 111, (R)-1-((8-((4-fluoro-2,6-dimethylbenzyl)amino)-2,3-dimethylimidazo[1,2-a]pyridin-6-yl)amino)-1-oxopropan-2-yl acetate]	–
0.1 to 0.5	Cc1cc(F)cc(C)c1CNc1cc(NC(=O)[C@H](C)O)cn2c(C)c(C)nc12 [Example 114, (S)-N-(8-((4-fluoro-2,6-dimethylbenzyl)amino)-2,3-dimethylimidazo[1,2-a]pyridin-6-yl)-2-hydroxypropanamide]	–
0.05 to 0.1	Cc1cc(F)cc(C)c1CNc1cc(N2C(=O)CN(C)C2=O)cn2c(C)c(C)nc12 [Example 116, 3-(8-((4-fluoro-2,6-dimethylbenzyl)amino)-2,3-dimethylimidazolidine[1,2-a]pyridin-6-yl)-1-methylimidazolidine-2,4-dione]	–
0.1 to 0.5	Cc1cccc(C)c1CNc1cc(NC(=O)[C@H]2CCCNC2)cn2c(C)c(C)nc12 [Example 118, (S)-N-(8-((2,6-dimethylbenzyl)amino)-2,3-dimethylimidazo[1,2-a]pyridin-6-yl)piperidine-3-carboxamide hydrochloride]	–
0.05 to 0.1	Cc1cccc(C)c1CNc1cc(N)cn2c(C)c(C)nc12 [Preliminary Example 1, N^8-(2,6-dimethylbenzyl)-2,3-dimethylimidazo[1,2-a]pyridine-6,8-diamine]	–
> 0.5	Cc1nc2c(O[C@H]3CCOc4cc(F)cc(F)c43)cc(C(=O)N(C)C)cc2[nH]1 [Tegoprazan, reference compound]	–

Second part, the molecule before the results:

Molecule	IC50 [1] [µM]	other results
CC(=O)Nc1cc(NCc2c(C)cccc2C)c2nc(C)c(C)n2c1 [Example 4, N-(8-((2,6-dimethylbenzyl)amino)-2,3-dimethylimidazo[1,2-a]pyridin-6-yl)acetamide]	< 0.05	inhibitory activity against proton pump activity [1]: excellent inhibitory properties; inhibition in vivo at 2 mg/kg (Pylorus-Ligated Rats): ≥ 90%; inhibitory activity against basal gastric acid secretion (Pylorus-Ligated Rats; 2 mg/kg oral): inhibitory activity
COCC(=O)Nc1cc(NCc2c(C)cccc2C)c2nc(C)c(C)n2c1 [Example 15, N-(8-((2,6-dimethylbenzyl)amino)-2,3-dimethylimidazo[1,2-a]pyridin-6-yl)-2-methoxyacetamide]	< 0.05	inhibitory activity against proton pump activity [1]: excellent inhibitory properties; inhibition in vivo at 2 mg/kg (Pylorus-Ligated Rats): ≥ 90%; inhibitory activity against basal gastric acid secretion (Pylorus-Ligated Rats; 2 mg/kg oral): inhibitory activity
CC(=O)Nc1cc(NCc2c(C)cc(F)cc2C)c2nc(C)c(C)n2c1 [Example 21, N-(8-((4-fluoro-2,6-dimethylbenzyl)amino)-2,3-dimethylimidazo[1,2-a]pyridin-6-yl)acetamide]	< 0.05	inhibitory activity against proton pump activity [1]: excellent inhibitory properties; inhibition in vivo at 2 mg/kg (Pylorus-Ligated Rats): ≥ 90%; inhibitory activity against basal gastric acid secretion (Pylorus-Ligated Rats; 2 mg/kg oral): inhibitory activity
CC(=O)Nc1cc(NCc2c(C)cc(F)cc2C)c2nc(C)c(C)n2c1.Cl [Example 45, N-(8-((4-fluoro-2,6-dimethylbenzyl)amino)-2,3-dimethylimidazo[1,2-a]pyridin-6-yl)acetamide hydrochloride]	–	GERD (rat/mpk) (Pylorus-Ligated Rats; % inhibitory activity on total gastric acid secretion, 2 mg/kg oral, pylorus ligated 1 h after administration, stomach contents collected 3 h after ligation): A (A≥90%); inhibitory activity against basal gastric acid secretion (Pylorus-Ligated Rats; 2 mg/kg oral): inhibitory activity
Cc1cccc(C)c1CNc1cc(NC(=O)CCN)cn2c(C)c(C)nc12 [Example 99, 3-amino-N-(8-((2,6-dimethylbenzyl)amino)-2,3-dimethylimidazo[1,2-a]pyridin-6-yl)propanamide hydrochloride]	0.05 to 0.1	–
Cc1cccc(C)c1CNc1cc(NC(=O)N2CCNCC2)cn2c(C)c(C)nc12 [Example 103, N-(8-((2,6-dimethylbenzyl)amino)-2,3-dimethylimidazo[1,2-a]pyridin-6-yl)piperazine-1-carboxamide hydrochloride]	0.1 to 0.5	–
Cc1cccc(C)c1CNc1cc(NC(=O)[C@H]2CCNC2)cn2c(C)c(C)nc12 [Example 105, (S)-N-(8-((2,6-dimethylbenzyl)amino)-2,3-dimethylimidazo[1,2-a]pyridin-6-yl)pyrrolidine-3-carboxamide hydrochloride]	0.1 to 0.5	–
CC(=O)Oc1ccc(/C=C/C(=O)Nc2cc(NCc3c(C)cccc3C)c3nc(C)c(C)n3c2)cc1 [Example 107, (E)-4-(3-((8-((2,6-dimethylbenzyl)amino)-2,3-dimethylimidazo[1,2-a]pyridin-6-yl)amino)-3-oxoprop-1-en-1-yl)phenyl acetate]	> 0.5	–
COc1cc(/C=C/C(=O)Nc2cc(NCc3c(C)cccc3C)c3nc(C)c(C)n3c2)ccc1OC(C)=O [Example 108, (E)-4-(3-((8-((2,6-dimethylbenzyl)amino)-2,3-dimethylimidazo[1,2-a]pyridin-6-yl)amino)-3-oxoprop-1-en-1-yl)-2-methoxyphenyl acetate]	> 0.5	–
Cc1cccc(C)c1CNc1cc(NC(=O)[C@@H]2CN2)cn2c(C)c(C)nc12 [Example 109, (S)-N-(8-((2,6-dimethylbenzyl)amino)-2,3-dimethylimidazo[1,2-a]pyridin-6-yl)aziridine-2-carboxamide hydrochloride]	0.1 to 0.5	–
Cc1cccc(C)c1CNc1cc(NC(=O)[C@H]2CCN(C(=O)CO)C2)cn2c(C)c(C)nc12 [Example 110, (S)-N-(8-((2,6-dimethylbenzyl)amino)-2,3-dimethylimidazo[1,2-a]pyridin-6-yl)-1-(2-hydroxyacetyl)pyrrolidine-3-carboxamide citrate]	0.1 to 0.5	–
CC(=O)O[C@@H](C)C(=O)Nc1cc(NCc2c(C)cc(F)cc2C)c2nc(C)c(C)n2c1 [Example 112, (S)-1-((8-((4-fluoro-2,6-dimethylbenzyl)amino)-2,3-dimethylimidazo[1,2-a]pyridin-6-yl)amino)-1-oxopropan-2-yl acetate]	> 0.5	–
CC(=O)OC1(C(=O)Nc2cc(NCc3c(C)cc(F)cc3C)c3nc(C)c(C)n3c2)CC1 [Example 113, 1-((8-((4-fluoro-2,6-dimethylbenzyl)amino)-2,3-dimethylimidazo[1,2-a]pyridin-6-yl)carbamoyl)cyclopropyl acetate]	0.1 to 0.5	–
Cc1cc(F)cc(C)c1CNc1cc(NC(=O)C2(O)CC2)cn2c(C)c(C)nc12 [Example 115, N-(8-((4-fluoro-2,6-dimethylbenzyl)amino)-2,3-dimethylimidazo[1,2-a]pyridin-6-yl)-1-hydroxycyclopropane-1-carboxamide]	< 0.05	inhibitory activity against proton pump activity [1]: excellent inhibitory properties
Cc1cc(F)cc(C)c1CNc1cc(NC(=O)[C@@H](C)O)cn2c(C)c(C)nc12 [Example 117, (R)-N-(8-((4-fluoro-2,6-dimethylbenzyl)amino)-2,3-dimethylimidazo[1,2-a]pyridin-6-yl)-2-hydroxypropanamide]	< 0.05	inhibitory activity against proton pump activity [1]: excellent inhibitory properties
Cc1cccc(C)c1CNc1cc(NC(=O)CCNC(=O)CO)cn2c(C)c(C)nc12 [Example 119, N-(8-((2,6-dimethylbenzyl)amino)-2,3-dimethylimidazo[1,2-a]pyridin-6-yl)-3-(2-hydroxyacetamido)propanamide]	0.05 to 0.1	–
Cc1cccc(C)c1CNc1cc(NC(=O)[C@H]2CCCN(C(=O)CO)C2)cn2c(C)c(C)nc12 [Example 120, (S)-N-(8-((2,6-dimethylbenzyl)amino)-2,3-dimethylimidazo[1,2-a]pyridin-6-yl)-1-(2-hydroxyacetyl)piperidine-3-carboxamide]	0.1 to 0.5	–
Cc1cc(F)cc(C)c1CNc1cc(N)cn2c(C)c(C)nc12 [Preliminary Example 2, N^8-(4-fluoro-2,6-dimethylbenzyl)-2,3-dimethylimidazo[1,2-a]pyridine-6,8-diamine hydrochloride]	0.05 to 0.1	–
tert-butyl (2-(3-(8-((2,6-dimethylbenzyl)amino)-2,3-dimethylimidazo[1,2-a]pyridin-6-yl)ureido)ethyl)carbamate hydrochloride [Example 42]	0.1 to 0.5	–

Source: EP4778924A1 (Huons Co., Ltd., priority 2023, dated 2025)
